First: NS(=O)(=O)c1cccc(C(=O)NCCN2CCC(Oc3ccc(Cl)c(Cl)c3)CC2)c1 [Example 22, 3-(aminosulfonyl)-N-{2-[4-(3,4-dichlorophenoxy)-1-piperidinyl]ethyl}benzamide]
Second: CS(=O)(=O)c1cccc(C(=O)NCCN2CCC(Oc3ccc(Cl)c(Cl)c3)CC2)c1.Cl
The melting point of the first is lower: 168 to 169 °C for the first, 219 °C for the second.

First: Cc1c(Cl)ccc(OC2CCN(CCNC(=O)c3ccc(S(C)(=O)=O)s3)CC2)c1Cl [Example 35, N-{2-[4-(2,4-dichloro-3-methylphenoxy)-1-piperidinyl]ethyl}-5-(methylsulfonyl)-2-thiophenecarboxamide]
Second: CS(=O)(=O)c1ccc(C(=O)NCCN2CCC(Oc3ccc(Cl)c(Cl)c3)CC2)s1 [Example 27, N-{2-[4-(3,4-dichlorophenoxy)-1-piperidinyl]ethyl}-5-(methylsulfonyl)-2-thiophenecarboxamide]
The melting point of the first is higher: 177 to 178 °C for the first, 142 to 143 °C for the second.

First: CS(=O)(=O)Cc1ccc(C(=O)NCCN2CCC(Oc3ccc(F)c(F)c3)CC2)cc1 [Example 44, N-{2-[4-(3,4-difluorophenoxy)-1-piperidinyl]ethyl}-4-[(methylsulfonyl)methyl]benzamide]
Second: CS(=O)(=O)Cc1ccc(C(=O)NCCN2CCC(Oc3ccc(Cl)c(Cl)c3)CC2)cc1 [Compound 7 of Table I, N-{2-[4-(3,4-dichlorophenoxy)-1-piperidinyl]ethyl}-4-[(methylsulfonyl)methyl]benzamide]
The melting point of the first is lower: 115 to 116 °C for the first, 179 to 181 °C for the second.

First: COc1cccc(C(=O)N(C)CCN2CCC(Oc3ccc(F)c(F)c3)CC2)c1.Cl
Second: N#Cc1cccc(C(=O)NCCN2CCC(Oc3ccc(F)c(F)c3)CC2)c1 [Example 43, 3-cyano-N-{2-[4-(3,4-difluorophenoxy)-1-piperidinyl]ethyl}benzamide]
The melting point of the first is higher: 218 °C for the first, 106 to 107 °C for the second.

First: O=C(NCCN1CCC(Oc2ccc(Cl)c(Cl)c2)CC1)c1cn2ccccc2n1 [Example 30, N-{2-[4-(3,4-dichlorophenoxy)-1-piperidinyl]ethyl}imidazo[1,2-a]pyridine-2-carboxamide]
Second: O=C(NCCN1CCC(Oc2ccc(Cl)c(Cl)c2)CC1)c1ccc(-n2cccn2)nc1 [Example 28, N-{2-[4-(3,4-dichlorophenoxy)-1-piperidinyl]ethyl}-6-(1H-pyrazol-1-yl)nicotinamide]
The melting point of the first is lower: 150 to 151 °C for the first, 154 to 155 °C for the second.

First: CS(=O)(=O)Cc1cccc(C(=O)NCCN2CCC(Oc3ccc(Cl)c(Cl)c3)CC2)c1 [Compound 5 of Table I, N-{2-[4-(3,4-dichlorophenoxy)-1-piperidinyl]ethyl}-3-[(methylsulfonyl)methyl]benzamide]
Second: CS(=O)(=O)Nc1cccc(C(=O)NCCN2CCC(Oc3ccc(Cl)c(Cl)c3)CC2)c1 [Compound 24 of Table I, N-{2-[4(3,4-dichlorophenoxy)-1-piperidinyl]ethyl}-3-[(methylsulfonyl)amino]benzamide]
The melting point of the first is lower: 112 to 114 °C for the first, 150 to 151 °C for the second.

Compared with Cc1c(Cl)ccc(OC2CCN(CCNC(=O)c3ccc(S(C)(=O)=O)cc3)CC2)c1Cl [Example 34, N-{2-[4-(2,4-dichloro-3-methylphenoxy)-1-piperidinyl]ethyl}-4-(methylsulfonyl)benzamide], Cc1cc(OC2CCN(CCNC(=O)c3ccc(S(C)(=O)=O)cc3)CC2)ccc1Cl [Example 37, N-{2-[4-(4-chloro-3-methylphenoxy)-1-piperidinyl]ethyl}-4-(methylsulfonyl)benzamide] is lower in melting point: 171 to 172 °C for the first, 123 to 124 °C for the second.

First: CS(=O)(=O)c1cccc(C(=O)NCCCN2CCC(Oc3ccc(Cl)c(Cl)c3)CC2)c1.Cl
Second: CS(=O)(=O)c1ccc(C(=O)NCCN2CCC(Oc3ccc(Cl)c(Cl)c3)CC2)cc1 [Example 29, N-{2-[4-(3,4-dichlorophenoxy)-1-piperidinyl]ethyl}-4-(methylsulfonyl)benzamide]
The melting point of the first is higher: 212 °C for the first, 100 to 101 °C for the second.

First: O=C(Cn1nnc(N2CCCC2)n1)NCCN1CCC(Oc2ccc(Cl)c(Cl)c2)CC1 [Compound 34 of Table II, N-{2-[4-(3,4-dichlorophenoxy)-1-piperidinyl]ethyl}-2-[5-(1-pyrrolidinyl)-2H-tetraazol-2-yl]acetamide]
Second: CCn1cc(C(=O)NCCN2CCC(Oc3ccc(Cl)c(Cl)c3)CC2)c(=O)c2ccc(C)nc21 [Example 23, N-{2-[4-(3,4-dichlorophenoxy)-1-piperidinyl]ethyl}-1-ethyl-7-methyl-4-oxo-1,4-dihydro[1,8]naphthyridine-3-carboxamide]
The melting point of the first is lower: 114 to 116 °C for the first, 169 to 217 °C for the second.

First: O=C(NCCN1CCC(Oc2ccc(Cl)c(Cl)c2)CC1)c1nnc(Nc2ccccc2Cl)o1 [Example 31, 5-(2-chloroanilino)-N-{2-[4-(3,4-dichlorophenoxy)-1-piperidinyl]ethyl}-1,3,4-oxadiazole-2-carboxamide]
Second: N#Cc1ccccc1C(=O)NCCN1CCC(Oc2ccc(F)c(F)c2)CC1 [Example 41, 2-cyano-N-{2-[4-(3,4-difluorophenoxy)-1-piperidinyl]ethyl}benzamide]
The melting point of the first is higher: 161 to 162 °C for the first, 146 to 147 °C for the second.

Compared with NS(=O)(=O)c1cc(C(=O)NCCN2CCC(Oc3ccc(F)c(F)c3)CC2)ccc1Cl [Example 40, 3-(aminosulfonyl)-4-chloro-N-{2-[4-(3,4-difluorophenoxy)-1-piperidinyl]ethyl}benzamide], CS(=O)(=O)c1ccc(C(=O)NCCN2CCC(Oc3ccc(F)c(F)c3)CC2)c(Cl)c1 [Example 42, 2-chloro-N-{2-[4-(3,4-difluorophenoxy)-1-piperidinyl]ethyl}-4-(methylsulfonyl)benzamide] is higher in melting point: 80 to 81 °C for the first, 108 to 109 °C for the second.

First: CS(=O)(=O)c1cccc(C(=O)NCCN2CCC(Oc3ccc(F)cc3Cl)CC2)c1 [Example 33, N-{2-[4-(2-chloro-4-fluorophenoxy)-1-piperidinyl]ethyl}-3-(methylsulfonyl)benzamide]
Second: O=C(NCCN1CCC(Oc2ccc(F)cc2Cl)CC1)c1ccc(-n2cccn2)nc1 [Example 32, N-{2-[4-(2-chloro-4-fluorophenoxy)-1-piperidinyl]ethyl}-6-(1H-pyrazol-1-yl)nicotinamide]
The melting point of the first is lower: 50 to 51 °C for the first, 109 to 110 °C for the second.

First: Cc1cc(OC2CCN(CCNC(=O)c3ccc(-n4cccn4)nc3)CC2)ccc1Cl [Example 38, N-{2-[4-(4-chloro-3-methylphenoxy)-1-piperidinyl]ethyl}-6-(1H-pyrazol-1-yl)nicotinamide]
Second: Cc1c(Cl)ccc(OC2CCN(CCNC(=O)c3ccccc3S(C)(=O)=O)CC2)c1Cl [Example 36, N-{2-[4-(2,4-dichloro-3-methylphenoxy)-1-piperidinyl]ethyl}-2-(methylsulfonyl)benzamide]
The melting point of the first is higher: 183 to 184 °C for the first, 71 to 72 °C for the second.

Reference: patent US7304077B2, “Chemical compounds” (AstraZeneca AB, priority 2001, dated 2007)
